Read-outs that look alike come from different tables or passages of the source.
Tested on: test plant species
Assay: Post-emergent herbicidal activity test (greenhouse, foliar spray, visual growth reduction)
Type: in vivo
Details: post-emergence, 336 h, 140 g ai/ha
Experimental: Post-emergent Test: Seeds or nutlets of the desired test plant species were planted in Sun Gro Metro-Mix® 360 planting mixture, which typically has a pH of 6.0 to 6.8 and an organic matter content of about 30 percent, in plastic pots with a surface area of 64 square centimeters. In some aspects, to ensure good germination and healthy plants, a fungicide treatment and/or other chemical or physical treatment was applied. The plants were grown for 7-21 d in a greenhouse with an approximate 15 h photoperiod which was maintained at 23-29° C. during the day and 22-28° C. during the night. Nutrients and water were added on a regular basis and supplemental lighting was provided with overhead metal halide 1000-Watt lamps as necessary. Plants were used for testing when they reached the first or second true leaf stage. A weighed amount, determined by the highest rate to be tested, of each test compound was placed in a 25 mL glass vial and was dissolved in 4 mL of a 97:3 v/v mixture of acetone and DMSO to obtain concentrated stock solutions. […] The concentrated stock solutions obtained were diluted with 20 mL of an aqueous mixture containing acetone, water, isopropyl alcohol, DMSO, […] crop oil concentrate, and X-77 surfactant in a 48.5:39:10:1.5:1.0:0.02 v/v ratio to obtain spray solutions containing the application rate. Compound requirements are based upon a 12 mL application volume at a rate of 187 liters per hectare (L/ha). Formulated compounds were applied to the plant material with an overhead Mandel track sprayer equipped with […] nozzles calibrated to deliver 187 L/ha over an application area of 0.64 square meters at a spray height of 18 inches (43 cm) above the average plant canopy height. Control plants were sprayed in the same manner with the solvent blank. The treated plants and control plants were placed in a greenhouse as described above and watered by subirrigation to prevent wash-off of the test compounds. After 14 d, the condition of the test plants as compared with that of the nontreated and control plants was determined visually and scored on a scale of 0 to 100 percent where 0 corresponds to no injury and 100 corresponds to complete control. In the reporting of the results, Table A: Percent Growth Reduction Conversion Table was used.

[1] = ECHCG: barnyardgrass (Echinochloa crus-galli), 14 days after application, read-out: Visual Growth Reduction (%) 14 Days After Application, ECHCG
[2] = IPOHE: ivy-leaf morning glory (Ipomoea hederacea), 14 days after application, read-out: Visual Growth Reduction (%) 14 Days After Application, IPOHE
[3] = KCHSC: kochia (Bassia scoparia), 14 days after application, read-out: Visual Growth Reduction (%) 14 Days After Application, KCHSC
[4] = ORYSA: rice (Oryza sativa), 14 days after application, read-out: Visual Growth Reduction (%) 14 Days After Application, ORYSA
[5] = SETFA: giant foxtail (Setaria faberi), 14 days after application, read-out: Visual Growth Reduction (%) 14 Days After Application, SETFA
[6] = SORVU: grain sorghum (Sorghum vulgare), 14 days after application, read-out: Visual Growth Reduction (%) 14 Days After Application, SORVU
[7] = STEME: common chickweed (Stellaria media), 14 days after application, read-out: Visual Growth Reduction (%) 14 Days After Application, STEME
[8] = TRZAS: wheat, spring (Triticum aestivum), 14 days after application, read-out: Visual Growth Reduction (%) 14 Days After Application, TRZAS
[9] = blackgrass (Alopecurus myosuroides), 14 Days After Application, read-out: Visual Growth Reduction (%) ALOMY
[10] = canada thistle (Cirsium arvense), 14 Days After Application, read-out: Visual Growth Reduction (%) CIRAR
[11] = crabgrass (Digitaria sanguinalis), 14 Days After Application, read-out: Visual Growth Reduction (%) DIGSA
[12] = lambsquarters (Chenopodium album), 14 Days After Application, read-out: Visual Growth Reduction (%) CHEAL
[13] = redroot pigweed (Amaranthus retroflexus), 14 Days After Application, read-out: Visual Growth Reduction (%) AMARE
[14] = wild oat (Avena fatua), 14 Days After Application, read-out: Visual Growth Reduction (%) AVEFA
[15] = yellow nutsedge (Cyperus esculentus), 14 Days After Application, read-out: Visual Growth Reduction (%) CYPES
[16] = ALOMY: blackgrass (Alopecurus myosuroides), 14 days after application, read-out: Visual Growth Reduction (%) 14 Days After Application, ALOMY
[17] = AMARE: redroot pigweed (Amaranthus retroflexus), 14 days after application, read-out: Visual Growth Reduction (%) 14 Days After Application, AMARE
[18] = AVEFA: wild oat (Avena fatua), 14 days after application, read-out: Visual Growth Reduction (%) 14 Days After Application, AVEFA
[19] = CHEAL: lambsquarters (Chenopodium album), 14 days after application, read-out: Visual Growth Reduction (%) 14 Days After Application, CHEAL
[20] = CIRAR: canada thistle (Cirsium arvense), 14 days after application, read-out: Visual Growth Reduction (%) 14 Days After Application, CIRAR
[21] = CYPES: yellow nutsedge (Cyperus esculentus), 14 days after application, read-out: Visual Growth Reduction (%) 14 Days After Application, CYPES
[22] = DIGSA: crabgrass (Digitaria sanguinalis), 14 days after application, read-out: Visual Growth Reduction (%) 14 Days After Application, DIGSA

| SMILES | pest or weed control at 140 g/ha [1] [%] | pest or weed control at 140 g/ha [2] [%] | pest or weed control at 140 g/ha [3] [%] | pest or weed control at 140 g/ha [4] [%] | pest or weed control at 140 g/ha [5] [%] | pest or weed control at 140 g/ha [6] [%] | pest or weed control at 140 g/ha [7] [%] | pest or weed control at 140 g/ha [8] [%] | pest or weed control at 140 g/ha [9] [%] | pest or weed control at 140 g/ha [11] [%] | pest or weed control at 140 g/ha [12] [%] | pest or weed control at 140 g/ha [13] [%] | pest or weed control at 140 g/ha [14] [%] | pest or weed control at 140 g/ha [15] [%] | pest or weed control at 140 g/ha [16] [%] | pest or weed control at 140 g/ha [17] [%] | pest or weed control at 140 g/ha [18] [%] | pest or weed control at 140 g/ha [19] [%] | pest or weed control at 140 g/ha [20] [%] | pest or weed control at 140 g/ha [22] [%] | other results |
| --- | --- | --- | --- | --- | --- | --- | --- | --- | --- | --- | --- | --- | --- | --- | --- | --- | --- | --- | --- | --- | --- |
| COC(=O)c1nc(-c2ccc(O)cc2F)c(F)cc1Cl [F345, Methyl 3-chloro-5-fluoro-6-(2-fluoro-4-hydroxyphenyl) picolinate] | 0 to 29 | 0 to 29 | 0 to 29 | 0 to 29 | 0 to 29 | 0 to 29 | 0 to 29 | 0 to 29 | 0 to 29 | 0 to 29 | 0 to 29 | 0 to 29 | 0 to 29 | 0 to 29 | – | – | – | – | – | – | pest or weed control at 140 g/ha [10]: 0 to 29% |
| COC(=O)c1nc(-c2ccc(C(F)(F)F)cc2Cl)ccc1C(F)(F)F [F9, Methyl 6-(2-chloro-4-(trifluoromethyl)phenyl)-3-(trifluoromethyl) picolinate] | – | – | – | – | – | – | – | – | – | – | – | – | – | – | 0 to 29 | 30 to 44 | 0 to 29 | 0 to 29 | 0 to 29 | 0 to 29 | pest or weed control at 140 g/ha [21]: 0 to 29%; pest or weed control at 140 g/ha (barnyardgrass (Echinochloa crus-galli), 14 Days After Application, read-out: Visual Growth Reduction (%) ECHCG): 0 to 29%; pest or weed control at 140 g/ha (common chickweed (Stellaria media), 14 Days After Application, read-out: Visual Growth Reduction (%) STEME): 0 to 29%; pest or weed control at 140 g/ha (giant foxtail (Setaria faberi), 14 Days After Application, read-out: Visual Growth Reduction (%) SETFA): 0 to 29%; pest or weed control at 140 g/ha (ivy-leaf morning glory (Ipomoea hederacea), 14 Days After Application, read-out: Visual Growth Reduction (%) IPOHE): 45 to 59%; pest or weed control at 140 g/ha (johnsongrass (Sorghum vulgare), 14 Days After Application, read-out: Visual Growth Reduction (%) SORVU): 0 to 29%; pest or weed control at 140 g/ha (kochia (Bassia scoparia), 14 Days After Application, read-out: Visual Growth Reduction (%) KCHSC): 0 to 29%; pest or weed control at 140 g/ha (rice (Oryza sativa), 14 Days After Application, read-out: Visual Growth Reduction (%) ORYSA): 0 to 29%; pest or weed control at 140 g/ha (wheat, spring (Triticum aestivum), 14 Days After Application, read-out: Visual Growth Reduction (%) TRZAS): 0 to 29% |
| O=C(O)c1nc(-c2cc3c(cc2Cl)OCO3)ccc1Cl [F148, 3-Chloro-6-(6-chlorobenzo[d][1,3]dioxol-5-yl)picolinic acid] | 0 to 29 | 30 to 44 | 0 to 29 | 0 to 29 | 0 to 29 | 0 to 29 | 0 to 29 | 0 to 29 | – | – | – | – | – | – | 0 to 29 | 75 to 84 | 0 to 29 | 75 to 84 | 0 to 29 | 0 to 29 | – |
| COC(=O)c1nc(-c2ccc(C(F)(F)F)c(Br)c2Cl)ccc1Cl [F140, methyl 6-(3-bromo-2-chloro-4-(trifluoromethyl)phenyl)-3-chloropicolinate] | 0 to 29 | 95 to 100 | 0 to 29 | 0 to 29 | 75 to 84 | 85 to 94 | 0 to 29 | 0 to 29 | – | – | – | – | – | – | 0 to 29 | 85 to 94 | 0 to 29 | 85 to 94 | 45 to 59 | 85 to 94 | pest or weed control at 140 g/ha [21]: 0 to 29% |
| COC(=O)c1nc(-c2ccc(C(F)(F)F)c(S(C)(=O)=O)c2Cl)ccc1Cl [F139, methyl 3-chloro-6-(2-chloro-3-(methylsulfonyl)-4-(trifluoromethyl)phenyl)picolinate] | 0 to 29 | 0 to 29 | 0 to 29 | 0 to 29 | 0 to 29 | 0 to 29 | 0 to 29 | 0 to 29 | – | – | – | – | – | – | 0 to 29 | 0 to 29 | 0 to 29 | 0 to 29 | 0 to 29 | 0 to 29 | pest or weed control at 140 g/ha [21]: 30 to 44% |
| COC(=O)c1nc(-c2cc3c(cc2F)OC(F)(F)O3)c(OC)cc1Cl [F335, Methyl 3-chloro-5-methoxy-6-(2,2,6-trifluorobenzo[d][1,3]dioxol-5-yl)picolinate] | 0 to 29 | 0 to 29 | 0 to 29 | 0 to 29 | 0 to 29 | 0 to 29 | 0 to 29 | 0 to 29 | 0 to 29 | 0 to 29 | 30 to 44 | 0 to 29 | 0 to 29 | 0 to 29 | – | – | – | – | – | – | – |
| COC(=O)c1nc(-c2ccc3cc[nH]c3c2)c(F)cc1Cl [F320, Methyl 3-chloro-5-fluoro-6-(1H-indol-6-yl)picolinate] | 0 to 29 | 60 to 74 | 0 to 29 | 0 to 29 | 0 to 29 | 0 to 29 | 0 to 29 | 0 to 29 | 0 to 29 | 0 to 29 | 60 to 74 | 0 to 29 | 0 to 29 | 0 to 29 | – | – | – | – | – | – | pest or weed control at 140 g/ha [10]: 30 to 44% |

From patent publication US20230017045A1, “PYRIDINE AND PYRIMIDINE CARBOXYLATE HERBICIDES AND METHODS OF USE THEREOF” (Dow AgroSciences LLC, priority 2017, published 2023)
